Structures are written as SMILES.

This experiment deals with T1, human polymorphonuclear leukocyte elastase (Homo sapiens, UniProt P08246).
T1 construct: Crude extract of human polymorphonuclear leukocytes (PMN) containing elastase activity; endogenous in cells; host or cells: human polymorphonuclear leukocytes (crude extract)
T1 sequence (P08246 30-247 limits assumed): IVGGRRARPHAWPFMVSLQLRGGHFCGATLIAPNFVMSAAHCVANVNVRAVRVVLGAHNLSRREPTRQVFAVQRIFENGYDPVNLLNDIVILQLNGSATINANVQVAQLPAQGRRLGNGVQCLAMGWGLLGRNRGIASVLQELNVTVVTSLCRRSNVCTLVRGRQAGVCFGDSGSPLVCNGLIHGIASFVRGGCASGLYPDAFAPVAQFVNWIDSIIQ
In words: Inhibition of human polymorphonuclear leukocyte (granulocyte) elastase via hydrolysis of Boc-AAPAN or Boc-AAPVN. As to conditions: pH 7.5, Table VI, (per mole per second); read-out: kobs/I, second order rate constant of inactivation of the enzyme. The class given is biochemical.
On to `CCC[C@@H](NC(=O)N1C(=O)C(CC)(CC)[C@@H]1Oc1ccc(CC(=O)O)c(Cl)c1)c1ccc(C)cc1` [Table VI: 3-Cl,4-CH2 COOH; nPr; 4-Me, (4S)-3,3-Diethyl-1-[(R)-α-n-propyl-(4-methyl)benzylaminocarbonyl]-4-[(4-carboxymethyl-3-chloro)phenoxy]azetidin-2-one], for which the kinact/KI amounted to 589000 M⁻¹ s⁻¹. Regarding `CCC[C@@H](NC(=O)N1C(=O)C(CC)(CC)[C@@H]1Oc1ccc(C(=O)O)c(Cl)c1)c1ccc(C)cc1` [Table VI: 3-Cl,4-COOH; nPr; 4-Me, (4S)-3,3-Diethyl-1-[(R)-α-n-propyl-(4-methyl)benzylaminocarbonyl]-4-[(4-carboxy-3-chloro)phenoxy]-azetidin-2-one], the kinact/KI was 621000 M⁻¹ s⁻¹. In the case of `CCC[C@@H](NC(=O)N1C(=O)C(CC)(CC)[C@@H]1Oc1ccc(CC(=O)O)c(F)c1)c1ccc(C)cc1` [Table VI: 3-F,4-CH2 COOH; nPr; 4-Me, (4S)-3,3-Diethyl-1-[(R)-α-n-propyl-(4-methyl)benzylaminocarbonyl]-4-[(4-carboxymethyl-3-fluoro)phenoxy]azetidin-2-one] it was 637000 M⁻¹ s⁻¹.

Consider `CCC[C@@H](NC(=O)N1C(=O)C(CC)(CC)[C@@H]1Oc1ccc(C(=O)O)c(F)c1)c1ccc(C)cc1` [Table VI: 3-F,4-COOH; nPr; 4-Me, (4S)-3,3-Diethyl-1-[(R)-α-n-propyl-(4-methyl)benzylaminocarbonyl]-4-[(4-carboxy-3-fluoro)phenoxy]-azetidin-2-one], for which the kinact/KI was found to be 464000 M⁻¹ s⁻¹. In the case of `CCC[C@@H](NC(=O)N1C(=O)C(CC)(CC)[C@@H]1Oc1ccc(CC(=O)O)c(C)c1)c1ccc(C)cc1` [Table VI: 3-Me,4-CH2 COOH; nPr; 4-Me] it was 998000 M⁻¹ s⁻¹; in that of `CCC[C@@H](NC(=O)N1C(=O)C(CC)(CC)[C@@H]1Oc1ccc(C(=O)O)c(C)c1)c1ccc(C)cc1` [Table VI: 3-Me,4-COOH; nPr; 4-Me, (4S)-3,3-diethyl-1-[(R)-α-n-propyl-(4-methyl)benzylaminocarbonyl]-4-[(4-carboxy-3-methyl)phenoxy]azetidin-2-one], 186000 M⁻¹ s⁻¹; in that of `CC[C@@H](NC(=O)N1C(=O)C(CC)(CC)[C@@H]1Oc1ccc(C(=O)O)c(O)c1)c1ccccc1` [Table VI: 3-OH-4-COOH; Et; H], 125000 M⁻¹ s⁻¹.

`CCC1(CC)C(=O)N(C(=O)N[C@H](C)c2ccccc2)[C@H]1Oc1ccc(CCC(=O)O)cc1` [Table VI: 4-(CH2)2 COOH; Me; H]: the kinact/KI came out at 9480 M⁻¹ s⁻¹. Take `CCC1(CC)C(=O)N(C(=O)N[C@@H](COC)c2ccccc2)[C@H]1Oc1ccc(CC(=O)O)cc1` [Table VI: 4-CH2 COOH; CH2 OMe(R); H]: the kinact/KI came to 11000 M⁻¹ s⁻¹. For `CC[C@@H](NC(=O)N1C(=O)C(CC)(CC)[C@@H]1Oc1ccc(CC(=O)O)cc1)c1ccccc1` [Table VI: 4-CH2 COOH; Et; H, (4S)-3,3-diethyl-1-[(R)-α-ethylbenzyl-aminocarbonyl]-4-[(4-carboxymethyl)phenoxy]azetidin-2-one], the kinact/KI stood at 126000 M⁻¹ s⁻¹. Next, `CCC1(CC)C(=O)N(C(=O)N[C@H](C)c2ccccc2)[C@H]1Oc1ccc(CC(=O)O)cc1` [Table VI: 4-CH2 COOH; Me; H]: 8370 M⁻¹ s⁻¹; `C=CC[C@@H](NC(=O)N1C(=O)C(CC)(CC)[C@@H]1Oc1ccc(CC(=O)O)cc1)c1ccc(C)cc1` [Table VI: 4-CH2 COOH; allyl; 4-Me, (4S)-3,3-diethyl-1-[(R)-α-allyl-(4-methyl)benzyl-aminocarbonyl]-4-[(4-carboxymethyl)phenoxy]azetidin-2-one]: 664000 M⁻¹ s⁻¹; `CCC[C@@H](NC(=O)N1C(=O)C(CC)(CC)[C@@H]1Oc1ccc(CC(=O)O)cc1)c1ccc(C)cc1` [Table VI: 4-CH2 COOH; nPr; 4-Me, (4S)-3,3-diethyl-1-[(R)-α-n-propyl-(4-methyl)-benzylaminocarbonyl]-4-[(4-carboxymethyl)-phenoxy]azetidin-2-one]: 557000 M⁻¹ s⁻¹. Next, `CCC[C@@H](NC(=O)N1C(=O)C(CC)(CC)[C@@H]1Oc1ccc(CC(=O)O)cc1)c1ccccc1` [Table VI: 4-CH2 COOH; nPr; H, (4S)-3,3-diethyl-1-[(R)-α-n-propylbenzylamino-carbonyl]-4-[(4-carboxymethyl)phenoxy]azetidin-2-one]: 188000 M⁻¹ s⁻¹. In the case of `CCC1(CC)C(=O)N(C(=O)N[C@H](C)c2ccccc2)[C@H]1Oc1ccc(C=CC(=O)O)cc1` [Table VI: 4-CHCHCOOH; Me; H] it was 9100 M⁻¹ s⁻¹; in that of `CC[C@@H](NC(=O)N1C(=O)C(CC)(CC)[C@@H]1Oc1ccc(C(=O)CCC(=O)O)cc1)c1ccccc1` [Table VI: 4-CO(CH2)2 COOH; Et; H], 272000 M⁻¹ s⁻¹. With `CCC1(CC)C(=O)N(C(=O)N[C@H](C)c2ccccc2)[C@H]1Oc1ccc(C(=O)CCC(=O)O)cc1` [Table VI: 4-CO(CH2)2COOH; Me; H], the kinact/KI worked out at 37100 M⁻¹ s⁻¹. In the case of `CCC1(CC)C(=O)N(C(=O)N[C@@H](COC)c2ccccc2)[C@H]1Oc1ccc(C(=O)O)cc1` [Table VI: 4-COOH; CH2 OMe(R); H] it was 6980 M⁻¹ s⁻¹. Next, `CCC1(CC)C(=O)N(C(=O)N[C@H](COC)c2ccccc2)[C@H]1Oc1ccc(C(=O)O)cc1` [Table VI: 4-COOH; CH2 OMe(s); H]: 6980 M⁻¹ s⁻¹.

Regarding `CC[C@@H](NC(=O)N1C(=O)C(CC)(CC)[C@@H]1Oc1ccc(C(=O)O)cc1)c1ccc(-c2ccccc2)cc1` [Table VI: 4-COOH; Et; 4-Ph], the kinact/KI stood at 26400 M⁻¹ s⁻¹. In the case of `CC[C@@H](NC(=O)N1C(=O)C(CC)(CC)[C@@H]1Oc1ccc(C(=O)O)cc1)c1ccccc1` [Table VI: 4-COOH; Et; H], the kinact/KI came to 76200 M⁻¹ s⁻¹. In the case of `CCC1(CC)C(=O)N(C(=O)N[C@@H](C)c2ccc(-c3ccccc3)cc2)[C@H]1Oc1ccc(C(=O)O)cc1` [Table VI: 4-COOH; Me(s); 4-Ph] it was 49200 M⁻¹ s⁻¹; in that of `CCC1(CC)C(=O)N(C(=O)N[C@H](C)c2ccc(-c3ccccc3Cl)cc2)[C@H]1Oc1ccc(C(=O)O)cc1` [Table VI: 4-COOH; Me; 4-(2'-ClPh)], 245000 M⁻¹ s⁻¹; in that of `CCC1(CC)C(=O)N(C(=O)N[C@H](C)c2ccc(C)cc2)[C@H]1Oc1ccc(C(=O)O)cc1` [Table VI: 4-COOH; Me; 4-Me], 10700 M⁻¹ s⁻¹. Next, `CCC1(CC)C(=O)N(C(=O)N[C@H](C)c2ccc(-c3ccccc3)cc2)[C@H]1Oc1ccc(C(=O)O)cc1` [Table VI: 4-COOH; Me; 4-Ph]: 74000 M⁻¹ s⁻¹; `CCC1(CC)C(=O)N(C(=O)N[C@H](C)c2ccccc2)[C@H]1Oc1ccc(C(=O)O)cc1` [Table VI: 4-COOH; Me; H]: 4020 M⁻¹ s⁻¹. In the case of `CCC1(CC)C(=O)N(C(=O)N[C@H](c2ccccc2)c2ccc(-c3ccccc3)cc2)[C@H]1Oc1ccc(C(=O)O)cc1` [Table VI: 4-COOH; Ph; 4-Ph] it was 67800 M⁻¹ s⁻¹; in that of `CCC1(CC)C(=O)N(C(=O)N[C@H](c2ccccc2)C(C)C)[C@H]1Oc1ccc(C(=O)O)cc1` [Table VI: 4-COOH; iPr(S); H], 4740 M⁻¹ s⁻¹; in that of `CCC1(CC)C(=O)N(C(=O)N[C@@H](c2ccccc2)C(C)C)[C@H]1Oc1ccc(C(=O)O)cc1` [Table VI: 4-COOH; iPr; H], 177000 M⁻¹ s⁻¹.

On to `CCC[C@@H](NC(=O)N1C(=O)C(CC)(CC)[C@@H]1Oc1ccc(C(=O)O)cc1)c1ccc(C)cc1` [Table VI: 4-COOH; nPr; 4-Me, (4S)-3,3-diethyl-1-[(R)-α-n-propyl-(4-methyl)-benzylaminocarbonyl]-4-[(4-carboxy)phenoxy]azetidin-2-one], for which the kinact/KI turned out to be 389000 M⁻¹ s⁻¹. In the case of `CCC[C@@H](NC(=O)N1C(=O)C(CC)(CC)[C@@H]1Oc1ccc(CC(=O)O)cc1)c1ccc2occc2c1` [Table VI: 4-Ch2(OOH); nPr; 3,4(-CHCHO), (4S)-3,3-Diethyl-1-[[(R)-1-(benzofuran-5-yl)butylamino]carbonyl]-4-[4-(carboxymethyl)phenoxy]azetidin-2-one] it was 848000 M⁻¹ s⁻¹.

The values are drawn from patent US5229381A, “Substituted azetidinones as anti-inflammatory and antidegenerative agents” (Merck & Co., Inc., priority 1991, dated 1993).
